Experimental data: publication PMC7076440, “New Preclinical Development of a c-Met Inhibitor and Its Combined Anti-Tumor Effect in c-Met-Amplified NSCLC” (Pharmaceutics, 2020)
Where “and” joins values, the source holds several entries; their conditions need not be identical. Equal entries are not always repeated.

What was measured:
[1] = Pharmacokinetic study in beagle dogs; assay type: in vivo; settings: for BA: PO; for BA / Tmax / AUC(0-inf) / AUC(0-t) / Cmax / MRT last / half-life: beagle dogs
Description: Male beagle dogs were purchased from Marshall, Beijing, China. They were housed under controlled humidity, temperature, and a 12L:12D lighting schedule. Before the experiment, the animals were fed less than 300 g/day for 2 days and those with a body weight around 7.0 ± 0.5 kg were selected for the pharmacokinetic study (n = 3). They were fasted overnight before the experiments but allowed to drink water. This study was reviewed, assessed, and approved by the Institutional Animal Care and Use Committee (IACUC) of the Korea Institute of Toxicology (KIT). The project identification codes were N117008 and N116047, signed on 31 May 2017. For the experiments, 0.5-mL blood samples were collected from each animal at selected intervals and loaded into K2-EDTA tubes. After centrifugation at 13,200 rpm for 5 min, quantitative analysis was performed using LC-MS/MS. Acetic acid buffer (0.1 M) at pH 4.0 with 20% PEG400 was selected as the intravenous solution for ABN401 and WinNonlinTM (Version 5.2.1, Pharsight, USA) was used to calculate the pharmacokinetic parameters (i.e., T1/2: terminal half-life, Cmax: maximum observed peak concentration, Tmax: time to reach Cmax, AUClast: area under the time-concentration curve from zero to the last quantifiable time-point, AUCinf: area under the time-concentration curve from zero to infinity, MRTlast: mean residence time from zero to the last quantifiable time-point). The bioavailability (BA) of each dose was calculated using the following equation:Bioavailability = (AUClast_po/AUClast_iv) × 100(5)
HPLC system (Agilent 1200, Santa Clara, CA, USA), consisting of a binary pump, a degasser, and a refrigerated autosampler (at 10 °C), was used in this study. Analytical samples were separated on the Agilent Eclipse XDB-C18 (3.5 um, 2.1 × 50 mm) at 23 °C. The mobile phase was composed of solvent A (10 mM ammonium formate in purified water) and solvent B (0.1 % formic acid in acetonitrile) and delivered at a flow rate of 0.3 mL/min. In this study, the gradient separation (i.e., the initial condition of the mobile phase consisted of 80% of solvent A and 20% of solvent B, then solvent A was decreased to 0% within 2 min and maintained for 5 min, followed by an increase to 80% within 0.2 min, maintained until 10 min) was used with a 10-min run time per sample. The MS system was composed of an API 4000 Sciex triple quadruple mass spectrometer (AB Sciex, Framingham, MA, USA). The triple quadrupole mass spectrometer was equipped with a turbo ion spray source. The MS/MS detection involved multiple reaction-monitoring in the positive ionization mode. The intensive tracer ion mass for each compound was 567.5 → 467.2 for ABN401 and 237.3 → 194.11 for carbamazepine as an internal standard. The conditions for the electrospray interface were: curtain gas, 20 psi; collision gas, medium; ion spray voltage, 5000 V; temperature, 500°C; ion source gas 1, 50 psi and ion source gas 2, 55 psi. The optimized voltage parameters for the analytes were as follows: declustering potential (61 V), entrance potential (10 V), collision energy (28 V), and collision cell exit potential (12 V). Data acquisition, quantification, and calculations were performed with the Analyst software version 1.4.2 (AB Sciex, Framingham, MA, USA).

[2] = Short storage stability of oral gavage formulation in cold chamber; assay type: physicochemical
Description: The solubility of ABN401 in two different acidic buffers (i.e., acetate and citrate) were analyzed at three different pH values: 4.0, 4.5, and 5.0 (Table 2). […] Different concentrations of PEG400, cremophor EL, and polysorbate 80 were also evaluated as co-solvents to ABN401 in 0.1 M acetate buffer at pH 4.0 to investigate the solubility enhancement. […] Therefore, 20% PEG400 in 0.1 M sodium acetate was selected as an oral gavage formulation and intravenous solution for in vivo studies. A short storage stability test was performed for 8 days in a cold chamber to determine the concentration recovery yields at low and high concentrations, which were 0.03 mg/mL and 133 mg/mL, respectively. […] As a result, pH 4.0 yielded the highest percentage recovery in both low and high concentrations (Table 3).

Forced degradation study = assay type: physicochemical
Description: ABN401 was dissolved in 50/50 (v/v) % of acetonitrile and water, to give a stock solution of 2 mg/mL. The stock sample was diluted to a final concentration of 0.5 mg/mL and subjected to various stresses such as 1.0 N HCl acid (pH 1.1), 1.0 N NaOH base (pH 12.3), 1.0% hydrogen peroxide, heat (in solution and as a solid material) in an oven at 60 °C, and UV-Vis light (in solution) in a closed quartz container at 20 °C with UV light at 16.08 mW/m2; Vis 5.7 kLux. The samples were tested with quantitative HPLC method at 24, 48, and 72 h. The results were expressed in area % for recovery. The control sample was left at ambient conditions to simulate the potential loss of ABN401 when left at ambient conditions (> 99.0%).

[3] = male, beagle, dog, plasma, iv, 1 mg/kg, mean ± SD
[4] = male, beagle, dog, plasma, po, 1 mg/kg, capsule with MCC, mean ± SD
[5] = male, beagle, dog, plasma, po, 5 mg/kg, capsule with MCC, mean ± SD
[6] = male, beagle, dog, plasma, po, 5 mg/kg, capsule without MCC, mean ± SD
[7] = male, beagle, dog, plasma, po, 10 mg/kg, capsule with MCC, mean ± SD

CN1CCN(Cc2ccc(-c3cnc(N4CCOC(Cn5nnc6ncc(-c7cnn(C)c7)nc65)C4)nc3)cc2)CC1 (centres unmarked) [ABN401]
BA ([1]; 1 mg/kg, capsule with MCC, mean ± SD): 28.3 ± 15.8%
BA ([1]; 5 mg/kg, capsule with MCC, mean ± SD): 30.7% and 30.7 ± 1.7%
BA ([1]; 5 mg/kg, capsule without MCC, mean ± SD): 30.7% and 30.7 ± 15.1%
BA ([1]; 10 mg/kg, capsule with MCC, mean ± SD): 11.3 ± 2.7%
Tmax ([1]; male, beagle, dog, plasma, iv, 1 mg/kg): 0.083 h
AUC(0-inf) [1, 3]: 287 ± 108 ng·h/mL
AUC(0-t) [1, 3]: 266 ± 105 ng·h/mL
Cmax [1, 3]: 308 ± 271 ng/mL
MRT last [1, 3]: 1.5 ± 0.7 h
half-life [1, 3]: 1.9 ± 0.7 h
AUC(0-inf) [1, 4]: 96.2 ± 40.7 ng·h/mL
AUC(0-t) [1, 4]: 75.4 ± 42 ng·h/mL
Cmax [1, 4]: 8 ± 3.8 ng/mL
MRT last [1, 4]: 7.6 ± 2.5 h
Tmax [1, 4]: 1.3 ± 0.6 h
half-life [1, 4]: 9.4 ± 3.2 h
AUC(0-inf) [1, 5]: 456 ± 28.5 ng·h/mL
AUC(0-t) [1, 5]: 409 ± 23 ng·h/mL
Cmax [1, 5]: 50.8 ± 12.4 ng/mL
MRT last [1, 5]: 8.6 ± 2.7 h
Tmax [1, 5]: 1.5 ± 0.7 h
half-life [1, 5]: 7.6 ± 4.5 h
AUC(0-inf) [1, 6]: 425 ± 218 ng·h/mL
AUC(0-t) [1, 6]: 409 ± 201 ng·h/mL
Cmax [1, 6]: 60.3 ± 29.1 ng/mL
MRT last [1, 6]: 6.4 ± 0.7 h
Tmax [1, 6]: 2 h
half-life [1, 6]: 4.9 ± 0.9 h
Tmax ([1]; male, beagle, dog, plasma, po, 10 mg/kg, across the doses 1, 5, 10 mg/kg): 1.3 to 2 h
AUC(0-inf) [1, 7]: 424 ± 186 ng·h/mL
AUC(0-t) [1, 7]: 302 ± 72 ng·h/mL
Cmax [1, 7]: 52.5 ± 13.5 ng/mL
MRT last [1, 7]: 6.3 ± 3.4 h
Tmax [1, 7]: 2 h
half-life [1, 7]: 7.7 ± 5.8 h
bioavailability ([1]; male, beagle, dog, plasma, oral, dogs, except at 10 mg/kg): ~30%
Recovery ([2]; 0.03 mg/mL, pH 2.0, day 8, 2–8 °C): 104.4%
Recovery ([2]; 0.03 mg/mL, pH 3.0, day 8, 2–8 °C): 96.5%
Recovery ([2]; 0.03 mg/mL, pH 4.0, day 0, 2–8 °C): 100.0%
Recovery ([2]; 0.03 mg/mL, pH 4.0, day 8, 2–8 °C): 97.0%
Recovery ([2]; 133 mg/mL, pH 2.0, day 8, 2–8 °C): 94.8%
Recovery ([2]; 133 mg/mL, pH 3.0, day 8, 2–8 °C): 94.4%
Recovery ([2]; 133 mg/mL, pH 4.0, day 0, 2–8 °C): 98.0%
Recovery ([2]; 133 mg/mL, pH 4.0, day 8, 2–8 °C): 98.0%
difference after exposure to acidic and basic pH (Forced degradation study; 1.0 N HCl (pH 1.1), 1.0 N NaOH (pH 12.3), 72 h): approximately 1.7%
sensitivity to UV/Vis light (Forced degradation study; in solution): highly sensitive
recovery of control sample (Forced degradation study; left at ambient conditions, area %): > 99.0%
